Measured values as given in publication PMC3388869, “High-affinity multivalent wheat germ agglutinin ligands by one-pot click reaction” (Beilstein Journal of Organic Chemistry, 2012).
Where two headings read alike, the source gives them in different places.

Assays:
[1] = target: T1, wheat germ agglutinin (WGA) (Triticum aestivum, UniProt P10969); test: enzyme-linked lectin assay (ELLA): inhibition of binding of HRP-labeled WGA to covalently immobilized GlcNAc; design: species or system Triticum vulgaris; settings: for β (relative inhibitory potency): referenced to N,N'-diacetylchitobiose (β = 1); for fold lower IC50 value than GlcNAc: relative to GlcNAc
T1 sequence (P10969 1-171 limits assumed): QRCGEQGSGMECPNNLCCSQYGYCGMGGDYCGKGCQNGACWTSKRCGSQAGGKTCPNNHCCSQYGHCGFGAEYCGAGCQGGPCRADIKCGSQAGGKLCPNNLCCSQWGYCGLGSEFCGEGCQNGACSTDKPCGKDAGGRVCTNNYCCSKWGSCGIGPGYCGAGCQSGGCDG
Procedure: Binding potencies of compounds C1–C6, GlcNAc, and N,N’-diacetylchitobiose were determined by an ELLA employing covalently immobilized GlcNAc as a reference ligand, as described recently. GlcNAc-coated microtiter plates were incubated with mixtures of horseradish-peroxidase-labeled WGA (HRP-WGA) and synthetic WGA ligands in varying concentrations. After incubation, the plates were washed and the remaining HRP-WGA bound to the microtiter plates was quantified by a HRP-catalyzed color reaction. From these curves the concentrations at which the binding of HRP–WGA to GlcNAc is reduced by 50% (IC50 values) were determined as a measure of the potency of the synthesized inhibitors (Table 2). Also shown in Table 2 are the relative inhibitory potencies (β values) referenced to N,N’-diacetylchitobiose (β = 1).

WGA = test system: WGA; design: method as in PMID 1472499; settings: WGA–ligand interaction; cited from earlier work
[2] = inhibition of binding of HRP-labeled WGA to covalently immobilized GlcNAc, read-out: IC50

| SMILES | IC50 [1, 2] | β (relative inhibitory potency) [1] | relative potency per chitobiose residue ([1]; relative to N,N'-diacetylchitobiose, per chitobiose residue) | IC50 ([1]; calculated per contained chitobiose, read-out: IC50 per contained chitobiose) | fold increased inhibition potency over the best divalent ligand C4 ([1]; relative to C4) | fold lower IC50 value than GlcNAc [1] | association constant K (WGA) |
| --- | --- | --- | --- | --- | --- | --- | --- |
| CC(=O)N[C@H]1[C@H](OCc2cn(Cc3ccccc3)nn2)O[C@H](CO)[C@@H](O[C@@H]2O[C@H](CO)[C@@H](O)[C@H](O)[C@H]2NC(C)=O)[C@@H]1O [C1] | 290 µM | 2.1 |  |  |  |  |  |
| CC(=O)N[C@H]1[C@H](OCc2cn(Cc3cccc(Cn4cc(CO[C@@H]5O[C@H](CO)[C@@H](O[C@@H]6O[C@H](CO)[C@@H](O)[C@H](O)[C@H]6NC(C)=O)[C@H](O)[C@H]5NC(C)=O)nn4)c3)nn2)O[C@H](CO)[C@@H](O[C@@H]2O[C@H](CO)[C@@H](O)[C@H](O)[C@H]2NC(C)=O)[C@@H]1O [C2] | 1.3 µM | 480 |  |  |  |  |  |
| CC(=O)N[C@H]1[C@H](OCc2cn(Cc3ccc(Cn4cc(CO[C@@H]5O[C@H](CO)[C@@H](O[C@@H]6O[C@H](CO)[C@@H](O)[C@H](O)[C@H]6NC(C)=O)[C@H](O)[C@H]5NC(C)=O)nn4)cc3)nn2)O[C@H](CO)[C@@H](O[C@@H]2O[C@H](CO)[C@@H](O)[C@H](O)[C@H]2NC(C)=O)[C@@H]1O [C3] | 1.9 µM | 330 |  |  |  |  |  |
| CC(=O)N[C@H]1[C@H](OCc2cn(CCCOCCCCOCCCn3cc(CO[C@@H]4O[C@H](CO)[C@@H](O[C@@H]5O[C@H](CO)[C@@H](O)[C@H](O)[C@H]5NC(C)=O)[C@H](O)[C@H]4NC(C)=O)nn3)nn2)O[C@H](CO)[C@@H](O[C@@H]2O[C@H](CO)[C@@H](O)[C@H](O)[C@H]2NC(C)=O)[C@@H]1O [C4] | 0.6 µM |  | 500 |  |  |  |  |
| CC(=O)N[C@H]1[C@H](OCc2cn(CCCOCCOCCOCCCn3cc(CO[C@@H]4O[C@H](CO)[C@@H](O[C@@H]5O[C@H](CO)[C@@H](O)[C@H](O)[C@H]5NC(C)=O)[C@H](O)[C@H]4NC(C)=O)nn3)nn2)O[C@H](CO)[C@@H](O[C@@H]2O[C@H](CO)[C@@H](O)[C@H](O)[C@H]2NC(C)=O)[C@@H]1O [C5] | 0.72 µM |  |  |  |  |  |  |
| CC(=O)N[C@H]1[C@H](OCc2cn(CCN(CCn3cc(CO[C@@H]4O[C@H](CO)[C@@H](O[C@@H]5O[C@H](CO)[C@@H](O)[C@H](O)[C@H]5NC(C)=O)[C@H](O)[C@H]4NC(C)=O)nn3)CCn3cc(CO[C@@H]4O[C@H](CO)[C@@H](O[C@@H]5O[C@H](CO)[C@@H](O)[C@H](O)[C@H]5NC(C)=O)[C@H](O)[C@H]4NC(C)=O)nn3)nn2)O[C@H](CO)[C@@H](O[C@@H]2O[C@H](CO)[C@@H](O)[C@H](O)[C@H]2NC(C)=O)[C@@H]1O [C6] | 0.22 µM | 2800 |  | 0.66 µM | 2.8 | 230000 |  |
| CC(=O)N[C@@H]1[C@@H](O)[C@H](O)[C@@H](CO)O[C@H]1O [GlcNAc, N-acetylglucosamine, reference compound] | 51000 µM | 1/82 |  |  |  |  | 2 × 10^2 to 1.3 × 10^3 M^–1 |
| CC(=O)N[C@H]1[C@H](O[C@H]2[C@H](O)[C@@H](NC(C)=O)C(O)O[C@@H]2CO)O[C@H](CO)[C@@H](O)[C@@H]1O (stereo partly drawn) [N,N'-diacetylchitobiose, reference compound] | 620 µM | 1 |  |  |  | 82 | 5 × 10^3 to 2 × 10^4 M^–1 |
